Measurements: patent US20040102364A1, “Backbone cyclized radiolabelled somatostatin analogs” (priority 2001, published 2004)
pIC50: −log10 of the molar value. Like-named read-outs stand apart in the source and are kept apart here.

Assays:
human cloned SST-R2 = biological target: T1, human cloned SST-R2 (Homo sapiens, UniProt P30874); assay: Inhibition of 125I-Tyr11-SRIF binding to cloned human SST-R2 membranes (CHO cells)
T1 construct: expressed in transfected cells; host or cells: CHO cells
Experimental: (§1) The SST analogs were tested for their potency in inhibition of the binding of ^125I-Tyr^11-SRIF (based on the method described by Raynor et. al., Molecular Pharmacology 43: 838, 1993) to membrane preparations expressing the transmembranal SST receptors (SST-R1, 2, 3, 4 or 5). The receptor preparations used for these tests were either from the cloned human receptors selectively and stably expressed in Chinese Hamster Ovary (CHO) cells or from cell lines naturally expressing the SST-Rs. […] The binding reactions were filtered, the filters were washed and the bound radioactivity was counted in β counter after addition of scintillation solution.

SST-R2 = SST-R2 (Homo sapiens, UniProt P30874); assay: Inhibition of SRIF binding to SST-R2 (species not stated); details: for inhibition at 10 pM: read-out: IC50 Screen SRIF Inhibited (%) 0.01 nM; for inhibition at 0.0001 µM: read-out: IC50 Screen SRIF Inhibited (%) 0.1 nM; for inhibition at 0.001 µM: read-out: IC50 Screen SRIF Inhibited (%) 1 nM
Experimental: as §1, with “solution. […]” for “solution.”

[1] = Quick Screen, 10 nM, SST-R2, read-out: Quick Screen SRIF Inhibited (%) 10 nM
[2] = Quick Screen, 100 nM, SST-R2, read-out: Quick Screen SRIF Inhibited (%) 100 nM
[3] = read-out: IC50 Screen SRIF Inhibited (%) 10 nM
[4] = read-out: IC50 Screen SRIF Inhibited (%) 100 nM

T1 sequence (P30874 whole entry): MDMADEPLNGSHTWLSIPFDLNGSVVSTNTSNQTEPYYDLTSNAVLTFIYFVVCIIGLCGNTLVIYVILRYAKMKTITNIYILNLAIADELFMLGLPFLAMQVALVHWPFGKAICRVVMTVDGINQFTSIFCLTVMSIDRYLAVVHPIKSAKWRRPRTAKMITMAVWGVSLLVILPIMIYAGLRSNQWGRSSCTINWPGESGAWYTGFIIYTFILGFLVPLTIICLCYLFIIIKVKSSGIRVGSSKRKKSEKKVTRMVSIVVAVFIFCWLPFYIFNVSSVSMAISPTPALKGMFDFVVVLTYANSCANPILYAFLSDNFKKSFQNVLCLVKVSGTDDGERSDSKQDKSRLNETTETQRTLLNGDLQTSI
SST-R2, sequence (P30874 whole entry): as above

Compound | inhibition at 0.01 µM (SST-R2; [1]) | inhibition at 0.1 µM (SST-R2; [2]) | inhibition at 10 pM (SST-R2) | inhibition at 0.0001 µM (SST-R2) | inhibition at 0.001 µM (SST-R2) | inhibition at 0.01 µM (SST-R2; [3]) | inhibition at 0.1 µM (SST-R2; [4]) | other results
C[C@@H](O)[C@@H]1NC(=O)[C@H](CCCCN)NC(=O)[C@@H](Cc2c[nH]c3ccccc23)NC(=O)[C@H](Cc2ccccc2)NC(=O)[C@@H]2CSSC[C@H](NC1=O)C(=O)N([C@@H](Cc1ccccc1)C(N)=O)CCCNC(=O)CCCN(C(=O)CNC(=O)CNC(=O)CNC(=O)CS)[C@@H](Cc1ccccc1)C(=O)N2 [PTR 3261, MAG3-PheC3-Cys-Phe-(D)Trp-Lys-Thr-Cys-PheN3-NH2] | – | – | – | – | – | – | – | pIC50 (human cloned SST-R2; human cloned SST-R2, 95% confidence interval given, read-out: IC50 calculated from the binding results of Table 3): 6.93; IC50 (human cloned SST-R2; human cloned receptor, read-out: Concentration (nM) of SST analogs to inhibit SRIF binding by 50%, SST-R 2): 100 nM; Total Bound (3-[125I]tyrosyl11)somatostatin-14 (cpm), Run 1 (human cloned SST-R2; peptide conc. 10 nM): 8335 cpm; Total Bound (3-[125I]tyrosyl11)somatostatin-14 (cpm), Run 2 (human cloned SST-R2; peptide conc. 10 nM): 8820 cpm; Total Bound (3-[125I]tyrosyl11)somatostatin-14 (cpm), Run 3 (human cloned SST-R2; peptide conc. 10 nM): 8098 cpm; Total Bound (3-[125I]tyrosyl11)somatostatin-14 (cpm), Run 1 (human cloned SST-R2; peptide conc. 100 nM): 5398 cpm; Total Bound (3-[125I]tyrosyl11)somatostatin-14 (cpm), Run 2 (human cloned SST-R2; peptide conc. 100 nM): 5328 cpm; Total Bound (3-[125I]tyrosyl11)somatostatin-14 (cpm), Run 3 (human cloned SST-R2; peptide conc. 100 nM): 5679 cpm; Total Bound (3-[125I]tyrosyl11)somatostatin-14 (cpm), Run 1 (human cloned SST-R2; peptide conc. 1000 nM): 1941 cpm; Total Bound (3-[125I]tyrosyl11)somatostatin-14 (cpm), Run 2 (human cloned SST-R2; peptide conc. 1000 nM): 3169 cpm; Total Bound (3-[125I]tyrosyl11)somatostatin-14 (cpm), Run 3 (human cloned SST-R2; peptide conc. 1000 nM): 2024 cpm; Total Bound (3-[125I]tyrosyl11)somatostatin-14 (cpm), Run 1 (human cloned SST-R2; peptide conc. 10000 nM): 917 cpm; Total Bound (3-[125I]tyrosyl11)somatostatin-14 (cpm), Run 2 (human cloned SST-R2; peptide conc. 10000 nM): 1106 cpm; Total Bound (3-[125I]tyrosyl11)somatostatin-14 (cpm), Run 3 (human cloned SST-R2; peptide conc. 10000 nM): 2281 cpm
C[C@@H](O)[C@@H]1NC(=O)[C@H](CCCCN)NC(=O)[C@@H](Cc2c[nH]c3ccccc23)NC(=O)[C@H](Cc2c[nH]c3ccccc23)NC(=O)[C@H](Cc2ccccc2)NC(=O)[C@@H](NC(=O)CNC(=O)CN(CCN(CCN(CC(=O)O)CC(=O)O)CC(=O)O)CC(=O)O)CCNC(=O)CCCN(CC(N)=O)C(=O)[C@H](Cc2ccccc2)NC1=O [PTR 3319, In-DTPA-Gly-Dab*-Phe-Trp-(D)Trp-Lys-Thr-Phe-GlyC3*-NH2] | 65% | 83% | -8.5% | -0.67% | 30% | 57% | 86% | –
C[C@@H](O)[C@@H]1NC(=O)[C@H](CCCCN)NC(=O)[C@@H](Cc2c[nH]c3ccccc23)NC(=O)[C@H](Cc2c[nH]c3ccccc23)NC(=O)[C@H](Cc2ccccc2)NC(=O)[C@@H](NC(=O)CN(CCN(CCN(CC(=O)O)CC(=O)O)CC(=O)O)CC(=O)O)CCNC(=O)CCCN(CC(N)=O)C(=O)[C@H](Cc2ccccc2)NC1=O [PTR 3337, In-DTPA-Dab*-Phe-Trp-(D)Trp-Lys-Thr-Phe-GlyC3*-NH2] | 53% | 87% | -8.5% | 10% | 37% | 69% | 89% | –
C[C@@H](O)[C@@H]1NC(=O)[C@H](CCCCN)NC(=O)[C@@H](Cc2c[nH]c3ccccc23)NC(=O)[C@H](Cc2c[nH]c3ccccc23)NC(=O)[C@H](Cc2ccccc2)NC(=O)[C@@H](NC(=O)CCNC(=O)CN(CCN(CCN(CC(=O)O)CC(=O)O)CC(=O)O)CC(=O)O)CCNC(=O)CCCN(CC(N)=O)C(=O)[C@H](Cc2ccccc2)NC1=O [PTR 3339, In-DTPA-b-Ala-Dab*-Phe-Trp-(D)Trp-Lys-Thr-Phe-GlyC3*-NH2] | 27% | 69% | -11% | 3% | 17% | 52% | 78% | –
C[C@@H](O)[C@@H]1NC(=O)[C@H](CCCCN)NC(=O)[C@@H](Cc2c[nH]c3ccccc23)NC(=O)[C@H](Cc2c[nH]c3ccccc23)NC(=O)[C@H](Cc2ccccc2)NC(=O)[C@@H](NC(=O)CCCNC(=O)CN(CCN(CCN(CC(=O)O)CC(=O)O)CC(=O)O)CC(=O)O)CCNC(=O)CCCN(CC(N)=O)C(=O)[C@H](Cc2ccccc2)NC1=O [PTR 3341, In-DTPA-GABA-Dab*-Phe-Trp-(D)Trp-Lys-Thr-Phe-GlyC3*-NH2] | 35% | 76% | -9.5% | -4.8% | 12% | 44% | 76% | –
In-DTPA-3-aminomethylbenzoic acid-Phe(C3**)-Cys*-Phe-(D)Trp-Lys-Thr-Cys*-Phe(N3**)-NH2 [PTR 3355] | – | – | – | – | – | – | – | SRIF Inhibited (%) 10 nM (SST-R2; 10 nM, SST-R2): 8%; SRIF Inhibited (%) 100 nM (SST-R2; 100 nM, SST-R2): 34%
In-DTPA-5-aminopentanoic acid-Dab*-Phe-Trp-(D)Trp-Lys-Thr-Phe-GlyC3*-NH2 [PTR 3343] | – | – | – | – | – | – | – | IC50 Screen SRIF Inhibited (%) 0.01 nM (SST-R2; IC50 Screen, 0.01 nM, SST-R2): −16%; IC50 Screen SRIF Inhibited (%) 0.1 nM (SST-R2; IC50 Screen, 0.1 nM, SST-R2): −3.8%; IC50 Screen SRIF Inhibited (%) 1 nM (SST-R2; IC50 Screen, 1 nM, SST-R2): 10%; IC50 Screen SRIF Inhibited (%) 10 nM (SST-R2; IC50 Screen, 10 nM, SST-R2): 44%; IC50 Screen SRIF Inhibited (%) 100 nM (SST-R2; IC50 Screen, 100 nM, SST-R2): 76%; Quick Screen SRIF Inhibited (%) 10 nM (SST-R2; Quick Screen, 10 nM, SST-R2): 37%; Quick Screen SRIF Inhibited (%) 100 nM (SST-R2; Quick Screen, 100 nM, SST-R2): 79%
